Results from paper PMC8464048 (Nucleic Acids Research, 2021).

Biological target: T1, EcGlyRS-FL (heterotetrameric (αβ)2 glycyl-tRNA synthetase) (Escherichia coli, UniProt P00960+P00961)
T1 construct: gene glyQ; full-length alpha (1-303) and full-length beta (1-689, C-terminal 6xHis), co-expressed in E. coli BL21(DE3); (αβ)2 heterotetramer
T1 sequence (P00960 1-303): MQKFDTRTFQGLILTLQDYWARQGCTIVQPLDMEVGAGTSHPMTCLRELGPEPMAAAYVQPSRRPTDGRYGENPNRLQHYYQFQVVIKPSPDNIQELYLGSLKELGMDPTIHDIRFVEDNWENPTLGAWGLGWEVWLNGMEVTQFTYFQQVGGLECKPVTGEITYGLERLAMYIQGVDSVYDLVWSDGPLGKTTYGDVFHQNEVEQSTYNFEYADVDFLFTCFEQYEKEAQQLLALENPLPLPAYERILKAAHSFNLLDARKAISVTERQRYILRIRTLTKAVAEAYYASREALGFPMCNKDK
T1 sequence (P00961 1-689): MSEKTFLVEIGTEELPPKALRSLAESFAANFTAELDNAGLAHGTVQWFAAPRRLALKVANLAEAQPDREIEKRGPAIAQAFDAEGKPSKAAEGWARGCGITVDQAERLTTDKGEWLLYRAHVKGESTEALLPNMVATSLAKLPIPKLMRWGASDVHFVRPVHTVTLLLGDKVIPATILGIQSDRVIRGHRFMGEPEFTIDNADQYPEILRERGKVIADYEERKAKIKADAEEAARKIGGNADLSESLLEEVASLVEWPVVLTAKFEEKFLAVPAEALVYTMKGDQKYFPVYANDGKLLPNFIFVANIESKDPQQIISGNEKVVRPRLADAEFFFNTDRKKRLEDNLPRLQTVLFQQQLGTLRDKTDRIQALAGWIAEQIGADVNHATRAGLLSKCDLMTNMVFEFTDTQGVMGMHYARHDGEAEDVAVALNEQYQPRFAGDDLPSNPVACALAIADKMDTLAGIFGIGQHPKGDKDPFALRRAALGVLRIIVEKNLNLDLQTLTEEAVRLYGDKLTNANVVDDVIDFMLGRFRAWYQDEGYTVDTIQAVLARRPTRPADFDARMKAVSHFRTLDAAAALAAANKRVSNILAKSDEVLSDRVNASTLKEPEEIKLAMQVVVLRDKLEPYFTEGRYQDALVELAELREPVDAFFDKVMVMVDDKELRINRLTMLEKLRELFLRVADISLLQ
Experiment: isothermal titration calorimetry, one-site fit
Format: binding

## Nc1ncnc2c1ncn2[C@@H]1O[C@H](COP(=O)(O)OP(=O)(O)OP(=O)(O)O)[C@@H](O)[C@H]1O [ATP]
  Kd: ~6 µM
